Data taken from article PMC4601640, “Stability of the Human Hsp90-p50^Cdc37 Chaperone Complex against Nucleotides and Hsp90 Inhibitors, and the Influence of Phosphorylation by Casein Kinase 2” (Molecules, 2015).
“Also recorded” adds a separate entry of the source.

Tests used:
[1] = target: T1, hΔHsp90β (Homo sapiens, UniProt P08238, DEL220-271/E274G/I272G/K273G/K275G); assay: ITC direct binding to Hsp90β deletion mutant lacking the charged linker; conditions: 50 mM HEPES pH 7.5, 10 mM MgCl2, 30 °C, read-out: Observed Kd
T1 construct: human Hsp90β (1-724 Δ220-275); His6 (N); made in house; host or cells: E. coli BL21 Star (DE3)
T1 sequence (P08238 with tags, fused parts or gaps DEL220-271/I272G/K273G/E274G/K275G): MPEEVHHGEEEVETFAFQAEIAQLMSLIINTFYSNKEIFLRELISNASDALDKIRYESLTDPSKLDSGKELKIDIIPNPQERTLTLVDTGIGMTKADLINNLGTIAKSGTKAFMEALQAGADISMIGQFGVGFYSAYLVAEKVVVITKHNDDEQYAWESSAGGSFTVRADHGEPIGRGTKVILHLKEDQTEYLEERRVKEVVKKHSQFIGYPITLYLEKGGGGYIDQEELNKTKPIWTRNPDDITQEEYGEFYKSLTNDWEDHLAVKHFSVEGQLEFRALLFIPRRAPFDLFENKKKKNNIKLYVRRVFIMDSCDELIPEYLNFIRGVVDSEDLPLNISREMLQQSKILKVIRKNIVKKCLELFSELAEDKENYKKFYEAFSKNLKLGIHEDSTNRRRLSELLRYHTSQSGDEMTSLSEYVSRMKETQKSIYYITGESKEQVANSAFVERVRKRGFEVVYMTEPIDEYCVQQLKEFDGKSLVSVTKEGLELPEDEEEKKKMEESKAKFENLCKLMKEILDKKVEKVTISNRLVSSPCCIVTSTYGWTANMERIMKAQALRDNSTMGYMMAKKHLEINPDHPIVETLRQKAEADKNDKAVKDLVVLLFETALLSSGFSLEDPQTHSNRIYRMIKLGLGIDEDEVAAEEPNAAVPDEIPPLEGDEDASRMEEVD
Source text: The gene encoding human full-length Hsp90β was subcloned from T47D cell line cDNA, and human full-length CK2α was subcloned from MCF7 cell line cDNA, both a kind gift from Dr. Jonathan Lancaster, Moffitt Cancer Center. […] The deleted sections in the two Hsp90 genes were each replaced by four glycine residues. Hsp90α and Hsp90β were subcloned into the pET28a vector (Novagen), and p50^Cdc37 was subcloned into a modified pET28a vector containing a maltose-binding protein (MBP) solubility tag and a PreScission protease cleavage site using restriction enzymes BamHI and NotI (Fermentas) and T4 DNA ligase (Invitrogen) following the manufacturers’ instructions. BamHI was substituted with NdeI for full-length Hsp90β. p50^Cdc37 was also subcloned into the pGEX6P-1 vector (GE Healthcare) using the same procedure as above to provide an N-terminal GST-tag for GST pull-down and ELISA experiments. The plasmids were transformed into E. coli BL21 Star (DE3) (Hsp90α and Hsp90β, Invitrogen), Tuner (DE3) (p50^Cdc37 modified pET28a, Novagen), or BL21 (DE3) (p50^Cdc37 pGEX6P-1, Stratagene) expression strains. Transformed cells were grown in LB broth at 37 °C until the OD600 reached 0.4, then the temperature was lowered to 16 °C, and cells were induced with 0.1 mM IPTG at OD600 = 0.5–0.7. Cultures were then grown for 20–24 h before harvesting by centrifugation (30 min at 30,000× g, 4 °C).
(§1) Binding of p50^Cdc37 and small molecules to Hsp90 was analyzed using a MicroCal iTC200 titration calorimeter (GE Healthcare). Compounds or p50^Cdc37 were titrated into a solution of Hsp90 using the following concentrations: p50^Cdc37 (200 µM) into Hsp90 (20 µM), nucleotides (600 µM) into Hsp90 (30 µM), inhibitors (300 µM) into Hsp90 (30 µM). […] All experiments were conducted in 50 mM HEPES pH 7.5, 10 mM MgCl2 at 30 °C. For titration of inhibitors, the buffer contained 5% DMSO. […] Generation of heat due to dilution was determined in separate experiments by diluting protein into buffer and subtracting these as blank values for each injection. Corrected heat values were fitted using a nonlinear least squares curve-fitting algorithm (Microcal Origin 7.0) to obtain the stoichiometry (n), binding constants (Ka, Kd), and change in enthalpy for each enzyme-ligand interaction (ΔH).

[2] = target: T2, hHsp90β-N (Homo sapiens, UniProt P08238); assay: ITC direct binding to N-terminal domain of Hsp90β; conditions: 30 °C, read-out: Observed Kd
T2 construct: human N-terminal Hsp90β (1-219, denoted Hsp90β-N); His6 (N); made in house; host or cells: E. coli BL21 Star (DE3)
T2 sequence (P08238 1-219): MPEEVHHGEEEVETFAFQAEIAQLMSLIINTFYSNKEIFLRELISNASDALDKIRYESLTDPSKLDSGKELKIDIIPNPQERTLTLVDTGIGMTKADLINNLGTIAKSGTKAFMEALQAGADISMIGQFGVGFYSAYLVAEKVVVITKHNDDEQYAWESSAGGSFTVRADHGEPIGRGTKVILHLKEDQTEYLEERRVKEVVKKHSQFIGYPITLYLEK
Source text: The gene encoding human full-length Hsp90β was subcloned from T47D cell line cDNA, and human full-length CK2α was subcloned from MCF7 cell line cDNA, both a kind gift from Dr. Jonathan Lancaster, Moffitt Cancer Center. The genes encoding the deletion mutants human Hsp90α (1-732 Δ226-283), human Hsp90β (1-724 Δ220-275), human N-terminal Hsp90β (1-219, denoted Hsp90β-N), and human full-length p50^Cdc37 (residues 1-378) were synthesized by GeneArt AG with optimized codon usage for E. coli expression. The deleted sections in the two Hsp90 genes were each replaced by four glycine residues. […]
Binding of p50^Cdc37 and small molecules to Hsp90 was analyzed using a MicroCal iTC200 titration calorimeter (GE Healthcare). […] Typically, an initial 0.5 µL injection was followed by 19 injections of 2.2 µL of syringe solution (compound or p50^Cdc37) into a 200 µL protein solution of Hsp90 constantly stirred at 1000 rpm, and data were recorded for 180 s between injections. Generation of heat due to dilution was determined in separate experiments by diluting protein into buffer and subtracting these as blank values for each injection. […]

[3] = target: yHsp82-FL; conditions: yHsp82-FL with human p50^Cdc37; ref [30]; read-out: Reported Kd; cited from earlier work
[4] = target: T3, Hsp90-p50^Cdc37 (Homo sapiens, UniProt P08238); assay: ELISA complex formation, immobilized GST-p50^Cdc37 and Hsp90β, unphosphorylated; assay type: binding
T3 construct: The gene encoding human full-length Hsp90β was subcloned from T47D cell line cDNA; made in house; host or cells: E. coli BL21 Star (DE3) (Hsp90β); E. coli BL21 (DE3) (GST-p50Cdc37)

[5] = target: T4, ΔHsp90-p50^Cdc37 (Homo sapiens, UniProt P08238, DEL220-271/E274G/I272G/K273G/K275G); assay: ELISA complex formation, ΔHsp90; assay type: binding
T4 construct: human Hsp90β (1-724 Δ220-275); made in house; host or cells: E. coli BL21 Star (DE3) (ΔHsp90β); E. coli BL21 (DE3) (GST-p50Cdc37)
T4 sequence (P08238 with tags, fused parts or gaps DEL220-271/I272G/K273G/E274G/K275G): as the sequence (P08238 with tags, fused parts or gaps DEL220-271/I272G/K273G/E274G/K275G) above

[6] = target: (p)Hsp90-(p)p50^Cdc37 (Homo sapiens, UniProt P08238); assay: biochemical
Chain of (p)Hsp90-(p)p50^Cdc37 (P08238 whole entry): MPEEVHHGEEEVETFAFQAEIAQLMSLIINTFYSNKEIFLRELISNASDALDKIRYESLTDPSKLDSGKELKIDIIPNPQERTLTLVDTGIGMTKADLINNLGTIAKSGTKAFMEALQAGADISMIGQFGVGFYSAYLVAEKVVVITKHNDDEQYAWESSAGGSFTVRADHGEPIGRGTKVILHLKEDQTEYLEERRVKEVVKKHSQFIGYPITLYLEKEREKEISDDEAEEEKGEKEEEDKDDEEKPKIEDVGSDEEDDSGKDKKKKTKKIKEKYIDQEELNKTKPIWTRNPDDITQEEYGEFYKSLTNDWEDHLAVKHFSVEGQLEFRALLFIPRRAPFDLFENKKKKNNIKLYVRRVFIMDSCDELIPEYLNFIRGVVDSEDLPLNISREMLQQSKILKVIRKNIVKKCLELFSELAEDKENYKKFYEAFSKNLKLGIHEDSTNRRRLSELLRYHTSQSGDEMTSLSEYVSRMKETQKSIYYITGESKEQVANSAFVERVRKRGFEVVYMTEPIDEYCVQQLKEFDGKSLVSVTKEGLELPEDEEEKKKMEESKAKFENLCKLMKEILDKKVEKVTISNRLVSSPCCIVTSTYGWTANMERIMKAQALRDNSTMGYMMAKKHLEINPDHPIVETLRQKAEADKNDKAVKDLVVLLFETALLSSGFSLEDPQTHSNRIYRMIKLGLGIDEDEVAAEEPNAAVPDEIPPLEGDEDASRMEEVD
Protocol: (§2) Phosphorylation of full-length Hsp90β and p50^Cdc37 was performed using purified full-length CK2α. The reaction was carried out in a 2.5 mL volume containing 50 µM Hsp90β or p50^Cdc37, 0.5 µM CK2α, 0.5 mM ATP, 20 mM Tris (pH 7.5), 50 mM KCl, and 10 mM MgCl2, and was incubated for 1 h at 30 °C. Samples were removed for analysis of phosphorylation status, and the proteins were re-buffered into 50 mM HEPES (pH 7.5), 150 mM NaCl, and 1 mM DTT (ELISA), or into 50 mM HEPES (pH 7.5) for ITC, using PD-10 gravity columns (GE Healthcare). Dephosphorylation was performed using 2.5 units of FastAP (alkaline phosphatase from Thermo Scientific) in buffer containing 10 mM Tris (pH 8.0 at 37 °C), 5 mM MgCl2, 100 mM KCl, 0.02% Triton-X 100, and 0.5 mg/mL BSA for 1 h at 37 °C.
(§3) Purified GST-p50^Cdc37 (4 µM) or control (purified GST alone, 4 µM) was added to glutathione-coated 96-well plates (Pierce) in 100 μL protein buffer (50 mM HEPES, pH 7.5, 150 mM NaCl, 10 mM MgCl2, 0.05% Tween-20, and 0.1% BSA) and incubated for 1 h at room temperature (triplicate wells per sample). […] The mixtures were then added to the wells (100 μL per well, in triplicates) and incubated for 1 h at room temperature before washing. The wells were incubated with anti-His6-tag mAb (1 mg/mL stock, Abcam), diluted 1:2000 in antibody buffer (50 mM HEPES pH 7.5, 150 mM NaCl, 10 mM MgCl2, 0.05% Tween-20, and 1% BSA) for 1 h, followed by secondary antibody (horse anti-mouse HRP-conjugated IgG, Cell Signaling Technology), diluted 1:5000 in antibody buffer, for 1.5 h at room temperature. After washing three times with 1× HBS-T and two times with 1× HBS, 200 μL HRP substrate (SigmaFast OPD) was added per well. The plates were incubated at room temperature, and the absorbance was read at 450 nm after 15 min and 30 min using a SpectraMax 340 PC plate reader (Molecular Devices). For dose-response measurements, absorption values were corrected for unspecific binding of Hsp90 to immobilized GST, and the raw data were fit to equation (1), where f(I) is the fraction of complex remaining, [I] is the concentration of the inhibitor, IC50 is the half maximal inhibitory concentration against Hsp90-p50^Cdc37 complex formation, n is the Hill slope coefficient, min is the signal remaining at high inhibitor concentrations and max is the signal of the uninhibited complex. Corrected absorption values (ΔOD) for the uninhibited Hsp90-p50^Cdc37 complex (unphosphorylated and phosphorylated) were in the range of 0.4–1.0. Data were expressed relative to the respective max value of Equation (1). (1) f(I)=min+(max−min)/1+([I]/IC50)^n

[7] = target: T5, hHsp90β-FL (Homo sapiens, UniProt P08238); assay: ITC direct binding to full-length Hsp90β; conditions: Figure 3
T5 construct: The gene encoding human full-length Hsp90β was subcloned from T47D cell line cDNA; His6 (N); made in house; host or cells: E. coli BL21 Star (DE3)
Protocol: as §1

[8] = target: (p)Hsp90-p50^Cdc37 (Homo sapiens, UniProt P08238); assay: ELISA complex formation, CK2-phosphorylated Hsp90β
Chain of (p)Hsp90-p50^Cdc37 (P08238 whole entry): as above
Protocol: as §2, §3

[9] = target: T6, ΔHsp90β interaction with GST-p50^Cdc37 (Homo sapiens, UniProt P08238, DEL220-271/E274G/I272G/K273G/K275G); assay: GST pull-down of ΔHsp90β with GST-p50^Cdc37; assay type: binding
T6 construct: human Hsp90β (1-724 Δ220-275); made in house; host or cells: E. coli BL21 Star (DE3) (ΔHsp90β); E. coli BL21 (DE3) (GST-p50Cdc37)
T6 sequence (P08238 with tags, fused parts or gaps DEL220-271/I272G/K273G/E274G/K275G): as the sequence (P08238 with tags, fused parts or gaps DEL220-271/I272G/K273G/E274G/K275G) above
Protocol: GST pull-down experiments were carried out using 1 mL GST 4 FastFlow resin in 8 mL Flex columns (Kontes). All experiments were performed at room temperature by gravity flow. Loading and wash buffers contained 50 mM Tris pH 8, 50 mM KCl, 5 mM MgCl2, and 5% DMSO. The elution buffer contained an additional 10 mM reduced glutathione. […] The resin was washed with 20 CV wash buffer, and samples were eluted with 2 CV elution buffer. Eluted protein was analysed on 12% SDS-PAGE stained with Coomassie blue for visualization.

Kd [1]	Kd [2]	IC50 ([4]; ELISA, Hsp90-p50^Cdc37 (unphosphorylated))	IC50 [5]	IC50 [6]	binding potential towards Hsp90β [7]	IC50 [8]	effect on complex in GST pull-down ([9]; 1 mM nucleotide or 0.1 mM inhibitor, 15 min incubation, SDS-PAGE)	protection of the complex from ADP in GST pull-down competition ([9]; in the presence of ADP, 0.1 mM radicicol)	Molecule	Kd [3]	inhibitory activity against the complex ([4]; unphosphorylated or phosphorylated complex, in vitro)
1.1 µM	4.4 µM								p50^Cdc37: human full-length co-chaperone protein p50^Cdc37 (residues 1-378), unphosphorylated	1.5 µM	
		> 1000 µM	> 1000 µM	> 1000 µM	failed to display binding potential	> 1000 µM	ineffective	had no effect	CC(=O)O[C@@H]1C[C@H]2C(C)(C)C(=O)C=C[C@]2(C)[C@H]2CC[C@@]3(C)[C@H](c4ccoc4)OC(=O)[C@H]4O[C@]43[C@@]21C [Gedunin]		did not show appreciable inhibitory activity; also recorded: did not affect the interaction of Hsp90 with p50^Cdc37 in vitro
